From patent US11912663B2, “Multi-targeted tyrosine kinase inhibitors and their pharmaceutical uses” (Shanghai AB PharmaTech Ltd., priority 2021, dated 2024)

Experiments:
[1] = tested on: lung cancer cell line (A549); experiment: tumor cell proliferation inhibition (CTG), lung cancer cell line; assay type: cell-based; conditions: Homo sapiens, 72 hours
[2] = MTD toxicity test in rats; assay type: in vivo; conditions: rat, in vivo
hERG potassium channels = hERG potassium channels (Homo sapiens (Human), UniProt Q12809); experiment: in vitro inhibitory effect of hERG, whole-cell patch clamp; assay type: cell-based; conditions: whole-cell recording, room temperature
hERG potassium channels, sequence (Q12809 whole entry): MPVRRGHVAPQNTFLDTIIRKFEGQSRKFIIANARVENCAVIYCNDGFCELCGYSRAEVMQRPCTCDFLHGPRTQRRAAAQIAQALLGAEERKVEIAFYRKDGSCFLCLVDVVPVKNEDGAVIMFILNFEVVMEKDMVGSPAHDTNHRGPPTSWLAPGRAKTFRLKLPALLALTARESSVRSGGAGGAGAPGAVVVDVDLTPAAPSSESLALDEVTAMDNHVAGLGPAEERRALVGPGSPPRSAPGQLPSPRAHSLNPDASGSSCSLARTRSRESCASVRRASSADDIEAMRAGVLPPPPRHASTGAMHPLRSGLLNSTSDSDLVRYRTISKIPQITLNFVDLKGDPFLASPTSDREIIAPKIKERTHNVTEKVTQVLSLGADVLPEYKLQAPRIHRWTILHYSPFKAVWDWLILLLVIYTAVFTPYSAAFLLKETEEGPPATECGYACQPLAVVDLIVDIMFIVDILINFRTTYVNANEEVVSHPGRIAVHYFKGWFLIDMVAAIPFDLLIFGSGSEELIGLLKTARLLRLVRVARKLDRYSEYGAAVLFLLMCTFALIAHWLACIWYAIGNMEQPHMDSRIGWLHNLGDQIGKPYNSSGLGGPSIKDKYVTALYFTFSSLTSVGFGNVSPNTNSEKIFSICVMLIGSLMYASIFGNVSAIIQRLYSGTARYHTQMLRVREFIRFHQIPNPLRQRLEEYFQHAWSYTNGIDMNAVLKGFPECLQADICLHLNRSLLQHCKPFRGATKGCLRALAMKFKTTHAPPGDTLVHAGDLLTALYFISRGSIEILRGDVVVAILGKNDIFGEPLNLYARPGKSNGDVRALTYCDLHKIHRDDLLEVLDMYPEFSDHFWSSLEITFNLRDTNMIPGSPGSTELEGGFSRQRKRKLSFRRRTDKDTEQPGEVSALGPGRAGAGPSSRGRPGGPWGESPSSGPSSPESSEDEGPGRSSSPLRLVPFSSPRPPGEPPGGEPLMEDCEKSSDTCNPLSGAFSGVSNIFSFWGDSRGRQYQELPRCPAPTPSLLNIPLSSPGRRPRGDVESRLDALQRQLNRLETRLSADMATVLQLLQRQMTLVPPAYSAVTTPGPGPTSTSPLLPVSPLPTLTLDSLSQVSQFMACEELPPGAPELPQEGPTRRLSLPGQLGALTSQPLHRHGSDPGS

[3] = tested on: kidney cancer cell line (Caki-1); experiment: tumor cell proliferation inhibition (CTG), kidney cancer cell line; assay type: cell-based; conditions: Homo sapiens, 72 hours, read-out: Caki-1 (renal cancer) IC50
[4] = tested on: pancreatic cancer cell line (BXPC3); experiment: tumor cell proliferation inhibition (CTG), pancreatic cancer cell line; assay type: cell-based; conditions: Homo sapiens, BXPC-3, 72 hours
[5] = tested on: leukemia cell line (K562); experiment: tumor cell proliferation inhibition (CTG), leukemia cell line; assay type: cell-based; conditions: Homo sapiens, 72 hours
[6] = tested on: hepatocellular carcinoma cell line (Hep3B 2.1-7); experiment: tumor cell proliferation inhibition (CTG), hepatocellular carcinoma cell line; assay type: cell-based; conditions: Homo sapiens, 72 hours
[7] = tested on: gastric cancer cell line (SNU16); experiment: tumor cell proliferation inhibition (CTG), gastric cancer cell line; assay type: cell-based; conditions: Homo sapiens, SNU-16, 72 hours, read-out: SUN16 IC50
[8] = tested on: cervical cancer cell lines (Hela); experiment: tumor cell proliferation inhibition (CTG), cervical cancer cell line; assay type: cell-based; conditions: Homo sapiens, 72 hours
prostatic cancer (PC-3) = experiment: tumor cell proliferation inhibition (CTG), PC-3; assay type: cell-based; conditions: 72 hours
RET = RET (Homo sapiens (Human), UniProt P07949); experiment: kinase inhibition, Mobility-Shift Assay; assay type: biochemical; conditions: 23 μM ATP
FGFR2 = FGFR2 (Homo sapiens (Human), UniProt P21802); experiment: kinase inhibition, Mobility-Shift Assay; assay type: biochemical; conditions: 1.9 μM ATP
FGFR2, sequence (P21802 22-821): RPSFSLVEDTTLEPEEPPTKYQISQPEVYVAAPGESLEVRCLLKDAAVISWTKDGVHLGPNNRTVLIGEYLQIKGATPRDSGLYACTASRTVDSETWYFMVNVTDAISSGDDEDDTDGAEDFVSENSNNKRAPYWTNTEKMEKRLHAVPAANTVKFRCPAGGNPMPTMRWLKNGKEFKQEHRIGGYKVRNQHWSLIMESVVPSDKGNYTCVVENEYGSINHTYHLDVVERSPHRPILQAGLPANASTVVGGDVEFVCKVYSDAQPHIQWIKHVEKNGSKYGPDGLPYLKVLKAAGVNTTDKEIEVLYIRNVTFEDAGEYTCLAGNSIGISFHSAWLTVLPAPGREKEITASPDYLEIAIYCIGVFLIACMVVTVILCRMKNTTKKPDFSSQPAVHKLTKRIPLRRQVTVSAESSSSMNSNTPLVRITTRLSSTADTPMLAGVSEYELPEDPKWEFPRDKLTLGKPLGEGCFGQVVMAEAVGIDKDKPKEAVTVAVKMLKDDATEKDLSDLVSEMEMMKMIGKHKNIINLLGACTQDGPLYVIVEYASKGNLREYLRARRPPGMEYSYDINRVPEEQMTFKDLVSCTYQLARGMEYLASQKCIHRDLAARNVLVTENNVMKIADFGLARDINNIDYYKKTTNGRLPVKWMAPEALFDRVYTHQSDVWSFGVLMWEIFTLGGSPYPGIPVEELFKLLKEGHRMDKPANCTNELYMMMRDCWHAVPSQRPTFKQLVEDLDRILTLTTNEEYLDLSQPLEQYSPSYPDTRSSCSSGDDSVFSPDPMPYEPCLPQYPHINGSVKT

VEGFR2 (KDR) = VEGFR2 (KDR) (Homo sapiens (Human), UniProt P35968); experiment: kinase inhibition, Mobility-Shift Assay; assay type: biochemical; conditions: VEGFR2, 92 μM ATP
VEGFR1 (FLT1) = VEGFR1 (FLT1) (Homo sapiens (Human), UniProt P17948); experiment: kinase inhibition, Mobility-Shift Assay; assay type: biochemical; conditions: 278 μM ATP
VEGFR1 (FLT1), sequence (P17948 27-1338): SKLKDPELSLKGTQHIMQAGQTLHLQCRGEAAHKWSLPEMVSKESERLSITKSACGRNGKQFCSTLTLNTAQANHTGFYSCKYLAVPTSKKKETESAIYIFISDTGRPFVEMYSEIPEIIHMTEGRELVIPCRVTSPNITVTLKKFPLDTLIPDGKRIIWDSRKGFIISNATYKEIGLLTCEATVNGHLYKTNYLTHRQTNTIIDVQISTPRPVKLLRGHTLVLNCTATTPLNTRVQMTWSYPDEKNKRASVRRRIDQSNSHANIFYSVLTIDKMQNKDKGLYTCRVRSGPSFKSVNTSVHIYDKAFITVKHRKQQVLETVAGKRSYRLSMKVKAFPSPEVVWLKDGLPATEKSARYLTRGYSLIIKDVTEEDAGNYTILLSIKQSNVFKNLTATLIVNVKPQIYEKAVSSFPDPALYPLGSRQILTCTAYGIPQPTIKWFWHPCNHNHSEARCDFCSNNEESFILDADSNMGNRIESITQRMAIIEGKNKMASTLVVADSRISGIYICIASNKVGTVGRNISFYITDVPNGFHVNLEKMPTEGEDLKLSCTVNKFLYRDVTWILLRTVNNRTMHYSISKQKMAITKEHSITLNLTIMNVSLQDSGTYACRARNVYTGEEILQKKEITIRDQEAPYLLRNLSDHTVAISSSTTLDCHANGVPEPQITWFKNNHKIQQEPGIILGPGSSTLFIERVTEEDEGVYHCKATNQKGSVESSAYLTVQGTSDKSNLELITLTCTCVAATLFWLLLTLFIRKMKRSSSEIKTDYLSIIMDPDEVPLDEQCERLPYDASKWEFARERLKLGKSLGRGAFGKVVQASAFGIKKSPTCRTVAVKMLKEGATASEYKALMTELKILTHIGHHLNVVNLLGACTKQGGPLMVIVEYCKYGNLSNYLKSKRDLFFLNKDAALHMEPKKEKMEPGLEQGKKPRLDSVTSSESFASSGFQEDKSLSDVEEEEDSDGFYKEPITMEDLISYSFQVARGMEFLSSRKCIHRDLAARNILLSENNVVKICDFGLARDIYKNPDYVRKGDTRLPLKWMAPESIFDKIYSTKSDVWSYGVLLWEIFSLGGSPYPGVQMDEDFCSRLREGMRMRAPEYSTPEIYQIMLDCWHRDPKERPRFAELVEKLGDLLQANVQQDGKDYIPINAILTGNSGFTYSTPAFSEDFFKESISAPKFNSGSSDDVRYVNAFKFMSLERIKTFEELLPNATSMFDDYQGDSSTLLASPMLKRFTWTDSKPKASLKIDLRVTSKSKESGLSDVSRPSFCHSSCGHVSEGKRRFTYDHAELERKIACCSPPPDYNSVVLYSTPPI

VEGFR3 (FLT4) = VEGFR3 (FLT4) (Homo sapiens (Human), UniProt P35916); experiment: kinase inhibition, Mobility-Shift Assay; assay type: biochemical; conditions: 84 μM ATP
VEGFR3 (FLT4), sequence (P35916 25-1363): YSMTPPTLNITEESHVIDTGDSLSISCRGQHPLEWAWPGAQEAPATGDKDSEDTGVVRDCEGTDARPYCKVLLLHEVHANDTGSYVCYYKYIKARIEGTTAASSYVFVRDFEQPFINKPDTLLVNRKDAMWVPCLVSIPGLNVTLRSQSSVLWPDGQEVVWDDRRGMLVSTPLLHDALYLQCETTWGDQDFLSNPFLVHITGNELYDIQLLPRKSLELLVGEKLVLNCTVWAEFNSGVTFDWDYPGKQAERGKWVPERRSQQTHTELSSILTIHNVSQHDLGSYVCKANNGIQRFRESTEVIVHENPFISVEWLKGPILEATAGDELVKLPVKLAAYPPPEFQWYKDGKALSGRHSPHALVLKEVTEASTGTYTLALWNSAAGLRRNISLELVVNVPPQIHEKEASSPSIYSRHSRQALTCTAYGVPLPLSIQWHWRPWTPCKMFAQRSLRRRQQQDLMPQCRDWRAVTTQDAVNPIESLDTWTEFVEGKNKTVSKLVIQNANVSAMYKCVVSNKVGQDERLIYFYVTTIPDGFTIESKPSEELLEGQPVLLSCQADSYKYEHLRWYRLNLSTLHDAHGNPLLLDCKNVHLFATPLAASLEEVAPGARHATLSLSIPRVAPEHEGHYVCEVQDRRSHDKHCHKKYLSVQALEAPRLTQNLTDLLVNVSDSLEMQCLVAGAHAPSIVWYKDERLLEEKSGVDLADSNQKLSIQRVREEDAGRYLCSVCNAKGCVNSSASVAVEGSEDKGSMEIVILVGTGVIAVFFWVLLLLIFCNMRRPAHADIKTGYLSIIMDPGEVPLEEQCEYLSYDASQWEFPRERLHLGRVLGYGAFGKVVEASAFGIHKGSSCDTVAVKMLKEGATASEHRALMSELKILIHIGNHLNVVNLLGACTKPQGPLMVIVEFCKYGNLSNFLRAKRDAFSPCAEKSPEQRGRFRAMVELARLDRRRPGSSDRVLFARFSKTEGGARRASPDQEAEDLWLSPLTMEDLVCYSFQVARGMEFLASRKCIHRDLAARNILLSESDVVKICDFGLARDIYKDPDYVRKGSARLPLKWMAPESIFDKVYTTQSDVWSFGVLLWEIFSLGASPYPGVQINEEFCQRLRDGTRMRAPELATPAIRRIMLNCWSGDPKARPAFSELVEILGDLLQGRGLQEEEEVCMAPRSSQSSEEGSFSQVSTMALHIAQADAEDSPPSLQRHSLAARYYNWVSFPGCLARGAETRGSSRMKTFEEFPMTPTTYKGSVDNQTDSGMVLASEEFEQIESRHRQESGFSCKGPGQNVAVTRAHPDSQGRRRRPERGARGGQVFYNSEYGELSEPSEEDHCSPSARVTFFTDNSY

Row | SMILES | IC50 [1] | IC50 [3] | IC50 [4] | further results
1 | CNC(=O)c1cc2c(Oc3c(F)cc(NC(=O)NC4CC4)c(Cl)c3F)ccnc2cc1OC [IIIb-01] | > 5 µM | > 5 µM | > 10 µM | MTD at 14 days ([2]; 150 mg/kg, in rats, read-out: MTD toxicity dose): > 150 mg/kg; MTD ([2]; toxicity study for MTD, species not stated): 300 mg/kg; IC50 (hERG potassium channels): > 30 µM
2 | CNC(=O)c1cc2c(Oc3c(F)cc(NC(=O)NC4CC4)c(F)c3F)ccnc2cc1OC [IIIb-02] | > 5 µM | > 5 µM | > 10 µM | 
3 | COc1cc2nccc(Oc3c(F)cc(NC(=O)NC4CC4)c(Cl)c3F)c2cc1C(=O)N(C)C [IIIb-03] | > 5 µM | > 5 µM | > 10 µM | 
4 | COc1cc2nccc(Oc3c(F)cc(NC(=O)NC4CC4)c(Cl)c3F)c2cc1C(=O)NC(C)C [IIIb-04] | > 5 µM | > 5 µM | > 10 µM | 
5 | COCCNC(=O)c1cc2c(Oc3c(F)cc(NC(=O)NC4CC4)c(Cl)c3F)ccnc2cc1OC [IIIb-05] | > 5 µM | > 5 µM | > 10 µM | 
6 | COc1cc2nccc(Oc3c(F)cc(NC(=O)NC4CC4)c(Cl)c3F)c2cc1C(=O)NCCF [IIIb-06] | 2.5 to 5 µM | 2.5 to 5 µM | > 10 µM | IC50 [5]: 5 to 10 µM; IC50 [6]: 2.5 to 5 µM; IC50 [7]: > 10 µM; IC50 [8]: < 5 µM; IC50 (hERG potassium channels): 18.7 µM; IC50 (prostatic cancer (PC-3)): > 10 µM
7 | COc1cc2nccc(Oc3c(F)cc(NC(=O)NC4CC4)c(F)c3F)c2cc1C(=O)NCC(F)F [IIIb-07] | > 5 µM | > 5 µM | > 10 µM | 
8 | COc1cc2nccc(Oc3c(F)cc(NC(=O)NC4CC4)c(Cl)c3F)c2cc1C(=O)NCCN(C)C [IIIb-10] | > 5 µM | > 5 µM | > 10 µM | 
9 | COc1cc2nccc(Oc3c(F)cc(NC(=O)NC4CC4)c(F)c3F)c2cc1C(=O)NC1CC1 [IIIb-11] | < 2.5 µM | < 2.5 µM | < 5 µM | 
10 | COc1cc2nccc(Oc3c(F)cc(NC(=O)NC4CC4)c(Cl)c3F)c2cc1C(=O)NC1CC1 [IIIb-12] | > 5 µM | > 5 µM | > 10 µM | 
11 | COc1cc2nccc(Oc3c(F)cc(NC(=O)NC4CC4)c(Cl)c3F)c2cc1C(=O)N(C1CC1)C1CC1 [IIIb-13] | > 5 µM | > 5 µM | > 10 µM | 
12 | COc1cc2nccc(Oc3c(F)cc(NC(=O)NC4CC4)c(Cl)c3F)c2cc1C(=O)N1CCC1 [IIIb-14] | > 5 µM | > 5 µM | > 10 µM | 
13 | COc1cc2nccc(Oc3c(F)cc(NC(=O)NC4CC4)c(F)c3F)c2cc1C(=O)NCCO [IIIb-15] | > 5 µM | > 5 µM | > 10 µM | 
14 | COc1cc2nccc(Oc3c(F)cc(NC(=O)NC4CC4)c(Cl)c3F)c2cc1C(=O)N[C@H](C)CO [IIIb-17] | > 5 µM | > 5 µM | > 10 µM | 
15 | COc1cc2nccc(Oc3c(F)cc(NC(=O)NC4CC4)c(Cl)c3F)c2cc1C(=O)N[C@@H](C)CO [IIIb-18] | > 5 µM | > 5 µM | > 10 µM | 
16 | COc1cc2nccc(Oc3c(F)cc(NC(=O)NC4CC4)c(Cl)c3F)c2cc1C(=O)NC(C)(C)CO [IIIb-19] | > 5 µM | > 5 µM | > 10 µM | 
17 | COc1cc2nccc(Oc3c(F)cc(NC(=O)NC4CC4)c(Cl)c3F)c2cc1C(=O)NC(CO)CO [IIIb-20] | > 5 µM | > 5 µM | > 10 µM | 
18 | COc1cc2nccc(Oc3c(F)cc(NC(=O)NC4CC4)c(Cl)c3F)c2cc1C(=O)NC[C@@H](O)CO [IIIb-21] | < 2.5 µM | < 2.5 µM | 5 to 10 µM | IC50 (RET): 0.005 to 0.01 µM; IC50 [5]: 5 to 10 µM; IC50 [6]: 2.5 to 5 µM; IC50 [7]: > 10 µM; IC50 [8]: > 10 µM; IC50 (FGFR2): 0.05 to 0.1 µM; IC50 (VEGFR2 (KDR)): < 0.005 µM; IC50 (VEGFR1 (FLT1)): < 0.005 µM; IC50 (VEGFR3 (FLT4)): < 0.005 µM; IC50 (prostatic cancer (PC-3)): > 10 µM
19 | COc1cc2nccc(Oc3c(F)cc(NC(=O)NC4CC4)c(Cl)c3F)c2cc1C(=O)NC[C@H](O)CO [IIIb-22] | 2.5 to 5 µM | 2.5 to 5 µM | > 10 µM | 
20 | COc1cc2nccc(Oc3c(F)cc(NC(=O)NC4CC4)c(Cl)c3F)c2cc1C(=O)NC1(CO)CC1 [IIIb-23] | > 5 µM | > 5 µM | > 10 µM | 
21 | COc1cc2nccc(Oc3c(F)cc(NC(=O)NC4CC4)c(Cl)c3F)c2cc1C(=O)N1CC(O)C1 [IIIb-24] | > 5 µM | > 5 µM | > 10 µM | 
22 | COc1cc2nccc(Oc3c(F)cc(NC(=O)NC4CC4)c(Cl)c3F)c2cc1C(=O)N1CC[C@@H](O)C1 [IIIb-25] | > 5 µM | > 5 µM | > 10 µM | 
23 | CNC(=O)c1cc(Oc2ccc(NC(=O)Nc3ccc(Cl)c(C(F)(F)F)c3)c(F)c2)ccn1 [Regorafenib, regorafenib, reference compound] | > 5 µM | > 5 µM | > 10 µM | IC50 [5]: > 10 µM; IC50 [6]: > 5 µM; IC50 [7]: 5 to 10 µM; IC50 [8]: > 10 µM; IC50 (hERG potassium channels): 27 µM; IC50 (prostatic cancer (PC-3)): > 10 µM
24 | CNC(=O)c1cc(Oc2ccc(NC(=O)Nc3ccc(Cl)c(C(F)(F)F)c3)cc2)ccn1 [Sorafenib, sorafenib, reference compound] |  |  |  | IC50 (hERG potassium channels): > 10 µM

Now from value to molecule, other results behind:

Row | IC50 [1] | IC50 [3] | IC50 [4] | SMILES | further results
25 | < 2.5 µM | < 2.5 µM | < 5 µM | COc1cc2nccc(Oc3c(F)cc(NC(=O)NC4CC4)c(Cl)c3F)c2cc1C(=O)N1CC[C@H](O)C1 [IIIb-26] | 
26 | > 5 µM | > 5 µM | > 10 µM | COc1cc2nccc(Oc3c(F)cc(NC(=O)NC4CC4)c(Cl)c3F)c2cc1C(=O)N1CCN(C)CC1 [IIIb-27] | 
27 | > 5 µM | > 5 µM | > 10 µM | COc1cc2nccc(Oc3c(F)cc(NC(=O)NC4CC4)c(Cl)c3F)c2cc1C(=O)NC1CCN(C)CC1 [IIIb-28] | 
28 | > 5 µM | > 5 µM | > 10 µM | COc1cc2nccc(Oc3c(F)cc(NC(=O)NC4CC4)c(Cl)c3F)c2cc1C#N [IIIb-29] | 
29 | > 5 µM | > 5 µM | > 10 µM | COc1cc2nccc(Oc3c(F)cc(NC(=O)NC4CC4)c(Cl)c3OC)c2cc1C#N [IIIb-30] | 
30 | > 5 µM | > 5 µM | > 10 µM | COc1cc2nccc(Oc3c(F)cc(NC(=O)NC4CC4)c(Cl)c3F)c2cc1C(=O)NC1(C(F)(F)F)CC1 [IIIb-41] | 
31 | > 5 µM | > 5 µM | > 10 µM | COc1cc2nccc(Oc3c(F)cc(NC(=O)NC4CC4)c(Cl)c3F)c2cc1C(=O)NC(CO)C(F)(F)F (stereo not shown) [IIIb-42] | 
32 | > 5 µM | > 5 µM | > 10 µM | COc1cc2nccc(Oc3c(F)cc(NC(=O)NC4CC4)c(Cl)c3F)c2cc1C(=O)NC(C)C#N (stereo not shown) [IIIb-46] | 
33 | > 5 µM | > 5 µM | > 10 µM | COc1cc2nccc(Oc3c(F)cc(NC(=O)NC4CC4)c(Cl)c3F)c2cc1C(=O)NC(C)(C)C#N [IIIb-47] | 
34 | > 5 µM | > 5 µM | > 10 µM | COc1cc2nccc(Oc3c(F)cc(NC(=O)NC4CC4)c(Cl)c3F)c2cc1C(=O)NC1(C#N)CC1 [IIIb-48] | 
35 | > 5 µM | > 5 µM | > 10 µM | COc1cc2nccc(Oc3c(F)cc(NC(=O)NC4CC4)c(Cl)c3F)c2cc1C(=O)NCC1(C#N)CC1 [IIIb-49] | 
36 | > 5 µM | > 5 µM | > 10 µM | COc1cc2nccc(Oc3c(F)cc(NC(=O)NC4CC4)c(Cl)c3F)c2cc1C(=O)NCCN [IIIb-51] | 
37 | > 5 µM | > 5 µM | > 10 µM | COc1cc2nccc(Oc3c(F)cc(NC(=O)NC4CC4)c(Cl)c3F)c2cc1C(=O)Nc1cn[nH]c1 [IIIb-52] | 
38 | > 5 µM | > 5 µM | > 10 µM | COc1cc2nccc(Oc3c(F)cc(NC(=O)NC4CC4)c(Cl)c3F)c2cc1C(=O)Nc1cnn(C)c1 [IIIb-53] | 
39 | > 5 µM | > 5 µM | > 10 µM | COc1cc2nccc(Oc3c(F)cc(NC(=O)NC4CC4)c(Cl)c3F)c2cc1C(=O)Nc1cncn1C [IIIb-54] | 
40 | > 5 µM | > 5 µM | > 10 µM | CN(C)CCOc1cc2nccc(Oc3c(F)cc(NC(=O)NC4CC4)c(Cl)c3F)c2cc1C(N)=O [IIIb-59] | 
41 | > 5 µM | > 5 µM | > 10 µM | COc1cc2nccc(Oc3ccc(NC(=O)NC4CC4)c(Cl)c3)c2cc1C(N)=O [Lenvatinib, lenvatinib, reference compound] | IC50 [5]: 5 to 10 µM; IC50 [6]: > 5 µM; IC50 [7]: 5 to 10 µM; IC50 [8]: > 10 µM; IC50 (FGFR2): 0.05 to 0.1 µM; IC50 (VEGFR1 (FLT1)): 0.005 to 0.01 µM; IC50 (VEGFR3 (FLT4)): < 0.005 µM; IC50 (prostatic cancer (PC-3)): > 10 µM
